Data reported in patent US10213451B2, “Methods and compounds for modulating the secretion or expression of adhesion proteins or angiopoietins of cells” (PACIFIC ARROW LIMITED, priority 2004, dated 2019).

What was measured:
Type in all cases: cell-based, human
[1] = tested on: RAB3B, member RAS oncogene family protein expression in ES2 cells; experiment: Microarray gene expression, Table 17
Experimental: (§1) Y/D is the ratio (in folds) of gene expression in cells treated with compound Y as compared with those of the no drug control (D),
(§2) YM/D is the ratio of gene expression in cells treated with compound YM (ACH-Y, Y without sugar moiety) compared with those of the no drug control (D)
(§3) Cell culture and drug-treatment.: ES2 cells were seeded in a T-25 flask with 4.5 million cells per flask for 24 hours. Cell culture was replaced with fresh medium with xanifolia-Y (Y) or DMSO no drug control (D) for 24 hours. Cells were then harvested for RNA isolation. Three experiments were done.
(§4) RNA extraction, labeling, hybridization, and data analysis. RNA was extracted from tumor cells using the Qiagen RNeasy Kit. RNA quality and quantity was checked by the Agilent BioAnalyzer and the NanoDrop® ND-1000 spectrophotometer respectively before further manipulation. The first and second cDNA strands were synthesized from 20 ng of total RNA using the Affymetrix T7 oligo(dT) primer protocol and kit for the two-cycle amplification. To produce amplified biotin-labeled-cRNA, the cDNA was […] by in vitro transcription using the MegaScript kit from Ambion. 15.0 μg of the labeled cRNA was fragmented and re-checked for concentration using the NanoDrop® ND-1000 spectrophotometer. A hybridization cocktail containing Affymetrix spike-in controls and fragmented labeled cRNA was loaded onto the Human U133 Plus 2.0 GeneChip® oligonucleotide array. The Affymetrix array (Affymetrix, Inc. Santa Clara, Calif.) is comprised of over 1,300,000 unique oligonucleotide features that represent greater than 38,500 well-substantiated human genes. The array was hybridized for 16 hours at 45° C. with rotation at 60 rpm then washed and stained with a strepavidin, R-phycoerythrin conjugate stain on the Affymetrix Fluidicis Station 450. Signal amplification was done using biotinylated antistreptavidin. The arrays were scanned using the GeneChip® 3000 confocal laser scanner with autoloader. The images were analyzed and quality control metrics recorded using Affymetrix GCOS software version 1.4. Lastly, the expression value for each gene was calculated using dChip PM-only model based or Plier algorithm.
(§5) Pairwise comparisons were made as follows: Treated vs. Control (Y vs. D), Modified Drug vs Control (YM/ACY-H vs. D) and Treated vs. Modified Drug (Y vs. YM/ACH-Y) Cel files analyzed using the Bioconductor package of R Statistical programming. Limma analysis generated a reasonable number of changing genes between the samples.
(§6) The raw data in the .CEL files were normalized by the GCRMA method (robust multi-array analysis). It is implemented in Bioconductor (http://www.bioconductor.org/). The raw signal intensity data were normalized, background corrected and summarized based on certain statistical models, and an expression value, in log 2-scale, is obtained per chip per probe set. Then the null hypothesis was tested that there's no significant changes in gene expression between the treatment pairs. This was done by LIMMA and is also implemented in Bioconductor. It uses empirical Bayes method to estimate the variance in gene expression. One comparison was made, namely, High Grade vs. Low Grade. The raw p-values were adjusted by the Benjamnin-Hochberg method for false discovery rate (FDR) control. All data sets contained a significant number of genes with a p-value less than 0.05, which is that the probability that a gene is NOT differential expressed (false positive) is 1:20.

[2] = tested on: myosin expression in ES2 cells; experiment: Microarray gene expression, Table 7
Experimental: as §1, §2, §3, §4, §5, §6

[3] = tested on: laminin expression in ES2 cells; experiment: Microarray gene expression, Table 3
Experimental: as §1, §2, §3, §4, §5, §6

[4] = tested on: heparin sulfate expression in ES2 cells; experiment: Microarray gene expression, Table 10
Experimental: as §1, §2, §3, §4, §5, §6

[5] = tested on: potassium channel, subfamily U, protein expression in ES2 cells; experiment: Microarray gene expression, Table 18; conditions: probe 237273_at
Experimental: as §1, §2, §3
RNA extraction, labeling, hybridization, and data analysis. RNA was extracted from tumor cells using the Qiagen RNeasy Kit. RNA quality and quantity was checked by the Agilent BioAnalyzer and the NanoDrop® ND-1000 spectrophotometer respectively before further manipulation. […] The images were analyzed and quality control metrics recorded using Affymetrix GCOS software version 1.4. Lastly, the expression value for each gene was calculated using dChip PM-only model based or Plier algorithm.
Pairwise comparisons were made as follows: Treated vs. Control (Y vs. D), Modified Drug vs Control (YM/ACY-H vs. D) and Treated vs. Modified Drug (Y vs. YM/ACH-Y) Cel files analyzed using the Bioconductor package of R Statistical programming. […]

[6] = tested on: fibronectin expression in ES2 cells; experiment: Microarray gene expression, Table 1
Experimental: as §1, §2, §3, §4, §5, §6

[7] = tested on: regulator of G-protein expression in ES2 cells; experiment: Microarray gene expression, Table 14
Experimental: as §1, §2, §3, §4, §5, §6

[8] = tested on: angiopoietin expression in ES2 cells; experiment: Microarray gene expression, Table 12
Experimental: as §1, §2, §3, §4, §5, §6

[9] = tested on: insulin-like growth factor binding protein expression in ES2 cells; experiment: Microarray gene expression, Table 16
Experimental: as §1, §2, §3, §4, §5, §6

[10] = tested on: Fibronectin secretion from skin SK-Mel-5 cells; experiment: Fibronectin secretion (Western blot), SK-MEL-5 cells; conditions: Homo sapiens
[11] = tested on: Fibronectin secretion from liver HepG2 cells; experiment: Fibronectin secretion (Western blot), HepG2 cells; conditions: 10 ug/ml

C/C=C(/C)C(=O)O[C@H]1[C@H](OC(=O)/C(C)=C\C)[C@@]2(CO)C(CC1(C)C)C1=CCC3[C@@]4(C)CC[C@H](O[C@@H]5OC(C(=O)O)[C@@H](O)C(O[C@@H]6O[C@@H](CO)C(O)C6O)C5O[C@@H]5OC(CO)[C@H](O)C(O)C5O)C(C)(C)C4CC[C@@]3(C)[C@]1(C)[C@@H](O)[C@H]2O (stereo partly drawn) [Xanifolia-Y, 3-O-[β-D-galactopyranosyl (1→2)]-α-L-arabinofuranosy (1→3)-β-D-glucuronopyranosyl-21,22-O-diangeloyl-3β, 15α, 16α, 21β, 22α, 28-hexahydroxyolean-12-ene]
RAB3B, member RAS oncogene family, gene expression ratio to no drug control (D) ([1]; probe 205924_at): −1.7 folds | RAB3B, member RAS oncogene family, gene expression ratio to no drug control (D) ([1]; probe 205925_s_at): −1.2 folds | RAB3B, member RAS oncogene family, gene expression ratio to no drug control (D) ([1]; probe 227123_at): −1.6 folds | RAB3B, member RAS oncogene family, gene expression ratio to no drug control (D) ([1]; probe 242629_at): −3.5 folds | MYLK myosin, light polypeptide kinase, gene expression ratio to no drug control (D) ([2]; probe 202555_s_at): −1.6 folds | MYO6 myosin VI, gene expression ratio to no drug control (D) ([2]; probe 203215_s_at): −1.6 folds | MYO5A myosin VA, gene expression ratio to no drug control (D) ([2]; probe 204527_at): −1.6 folds | MYH9 myosin, heavy polypeptide 9, non-muscle, gene expression ratio to no drug control (D) ([2]; probe 211926_s_at): −2.2 folds | MYO1D myosin ID, gene expression ratio to no drug control (D) ([2]; probe 212338_at): −1.7 folds | MYH10 myosin, heavy polypeptide 10, non-muscle, gene expression ratio to no drug control (D) ([2]; probe 212372_at): −1.7 folds | MYLK myosin, light polypeptide kinase, gene expression ratio to no drug control (D) ([2]; probe 224823_at): −1.5 folds | MYO1C Myosin IC, gene expression ratio to no drug control (D) ([2]; probe 225080_at): −1.5 folds | expression ratio to the control, myosin family ([2]; span over probes of Table 7): −1.5 to −2.2 folds | LAMC1, gene expression ratio to no drug control (D) ([3]; probe 200770_s_at): −1.9 folds | LAMB1 laminin, beta 1, gene expression ratio to no drug control (D) ([3]; probe 201505_at): −1.6 folds | LAMA4 laminin, alpha 4, gene expression ratio to no drug control (D) ([3]; probe 202202_s_at): −2.2 folds | LAMB1, gene expression ratio to no drug control (D) ([3]; probe 211651_s_at): −1.6 folds | LAMB2, gene expression ratio to no drug control (D) ([3]; probe 216264_s_at): −2.0 folds | HSPG2 heparan sulfate proteoglycan 2 (perlecan), gene expression ratio to no drug control (D) ([4]; probe 201655_s_at): −2.4 folds | HS2ST1 heparan sulfate 2-O-sulfotransferase 1, gene expression ratio to no drug control (D) ([4]; probe 203284_s_at): −1.3 folds | HPSE Heparanase, gene expression ratio to no drug control (D) ([4]; probe 219403_s_at): −1.4 folds | KCNU1 potassium channel, subfamily U, member 1, gene expression ratio to no drug control (D) [5]: −4.0 folds | FN1 fibronectin 1, gene expression ratio to no drug control (D) ([6]; probe 210495_x_at): −2.5 folds | FN1 fibronectin 1, gene expression ratio to no drug control (D) ([6]; probe 211719_x_at): −2.6 folds | FN1 fibronectin 1, gene expression ratio to no drug control (D) ([6]; probe 212464_s_at): −2.7 folds | FN1 fibronectin 1, gene expression ratio to no drug control (D) ([6]; probe 216442_x_at): −2.6 folds | RGS4 regulator of G-protein signalling 4, gene expression ratio to no drug control (D) ([7]; probe 204337_at): −3.4 folds | RGS4 regulator of G-protein signalling 4, gene expression ratio to no drug control (D) ([7]; probe 204338_s_at): −2.5 folds | RGS4 regulator of G-protein signalling 4, gene expression ratio to no drug control (D) ([7]; probe 204339_s_at): −3.5 folds | ANGPT2 angiopoietin 2, gene expression ratio to no drug control (D) ([8]; probe 205572_at): 3.5 folds | ANGPT1 angiopoietin 1, gene expression ratio to no drug control (D) ([8]; probe 205609_at): −1.1 folds | ANGPT2 angiopoietin 2, gene expression ratio to no drug control (D) ([8]; probe 211148_s_at): 2.5 folds | ANGPTL4 angiopoietin-like 4, gene expression ratio to no drug control (D) ([8]; probe 221009_s_at): −1.2 folds | ANGPTL1 Angiopoietin-like 1, gene expression ratio to no drug control (D) ([8]; probe 227533_at): −1.5 folds | IGFBP7 insulin-like growth factor binding protein 7, gene expression ratio to no drug control (D) ([9]; probe 201163_s_at): −1.4 folds | IGFBP4 insulin-like growth factor binding protein 4, gene expression ratio to no drug control (D) ([9]; probe 201508_at): −1.7 folds | IGFBP6 insulin-like growth factor binding protein 6, gene expression ratio to no drug control (D) ([9]; probe 203851_at): −1.3 folds | IGFBP1 insulin-like growth factor binding protein 1, gene expression ratio to no drug control (D) ([9]; probe 205302_at): −1.7 folds | IGFBP3 insulin-like growth factor binding protein 3, gene expression ratio to no drug control (D) ([9]; probe 210095_s_at): −4.0 folds | IGFBP3 insulin-like growth factor binding protein 3, gene expression ratio to no drug control (D) ([9]; probe 212143_s_at): −3.7 folds | inhibition at 10 µg/mL ([10]; 10 ug/ml): 11% | inhibition at 20 µg/mL ([10]; 20 ug/ml): 40 to 57% | % inhibition of Fibronectin secretion ([11]; HepG2 cells): 48% | inhibition at 10 µg/mL ([11]; Homo sapiens, HepG2, HepG2 cells): 42%
